From article PMC6723908, “OCTN2-Mediated Acetyl-L-Carnitine Transport in Human Pulmonary Epithelial Cells In Vitro” (Pharmaceutics, 2019)

Molecular target: T1, OCTN2 (Homo sapiens, UniProt O76082)
T1 construct: gene SLC22A5
T1 sequence (O76082 1-557): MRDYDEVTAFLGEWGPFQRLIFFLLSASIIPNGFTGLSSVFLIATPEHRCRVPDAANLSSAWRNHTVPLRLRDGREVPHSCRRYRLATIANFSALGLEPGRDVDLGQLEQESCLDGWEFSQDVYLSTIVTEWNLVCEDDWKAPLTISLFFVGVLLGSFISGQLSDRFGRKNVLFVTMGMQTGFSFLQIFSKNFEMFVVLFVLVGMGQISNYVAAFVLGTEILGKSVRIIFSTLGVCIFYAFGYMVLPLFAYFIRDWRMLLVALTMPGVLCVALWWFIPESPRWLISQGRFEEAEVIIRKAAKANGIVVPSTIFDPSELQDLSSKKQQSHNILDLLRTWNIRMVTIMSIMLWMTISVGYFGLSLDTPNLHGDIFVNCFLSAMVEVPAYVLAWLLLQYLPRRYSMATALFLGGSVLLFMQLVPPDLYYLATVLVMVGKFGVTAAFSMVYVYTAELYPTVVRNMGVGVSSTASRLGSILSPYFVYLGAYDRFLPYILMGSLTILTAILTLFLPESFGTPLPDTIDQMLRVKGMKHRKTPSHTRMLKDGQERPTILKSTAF
Experiment: inhibition of [3H]-acetyl-L-carnitine uptake in ATI-like and A549 cells at […] (uptake reduced to […] in A549)
Assay type: cell-based
Conditions: read-out: % of control uptake at 500 μM

Question: How did the remaining activity at 500 µM turn out when C[N+](C)(C)C[C@@H](O)CC(=O)[O-] [D-carnitine] was run?
Answer: The remaining activity at 500 µM was 25.8 ± 1.3%.
